Source: patent publication US9297017B2, “Methods and compositions for targeted protein degradation” (University of Washington, priority 2010, dated 2016)
Where two headings read alike, the source gives them in different places.

Biological target: T1, full-length JAZ6 (Arabidopsis thaliana, UniProt Q9C9E3)
T1 construct: 6xHis; made in house; host or cells: Escherichia coli
T1 sequence (Q9C9E3 1-269): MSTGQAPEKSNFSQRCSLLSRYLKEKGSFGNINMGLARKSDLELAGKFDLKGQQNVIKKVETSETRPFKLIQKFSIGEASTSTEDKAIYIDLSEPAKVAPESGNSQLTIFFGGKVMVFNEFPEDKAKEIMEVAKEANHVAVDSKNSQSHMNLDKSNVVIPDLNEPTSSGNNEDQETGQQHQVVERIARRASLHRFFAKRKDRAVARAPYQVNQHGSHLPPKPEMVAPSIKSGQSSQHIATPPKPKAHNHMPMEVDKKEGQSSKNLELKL
Assay: Radioligand binding of 3H-coronatine to full-length JAZ6 alone
From the text: (^3H)-labeled coronatine was synthesized by Amersham. Full-length Arabidopsis thaliana COI1 and ASK1 were co-expressed as a glutathione S-transferase (GST) fusion protein and an untagged protein, respectively, in Hi5 suspension insect cells. The COI1/ASK1 complex was isolated from the soluble cell lysate by glutathione affinity chromatography. After on-column tag cleavage by tobacco etch virus protease, the complex was further purified by anion exchange and gel filtration chromatography and concentrated by ultrafiltration to 12-18 mg ml^−1. Full-length JAZ substrate proteins were expressed as 6×His-fusion proteins in Escherichia coli and purified on Ni-NTA resin with subsequent dialysis into 20 mM Tris-HCl, pH 8.0, 200 mM NaCl, and 10% glycerol.
Radioligand binding was assayed on purified proteins, with 2 mg COI1/ASK1 complex and JAZ proteins at a 1:3 molar ratio. […] Nonspecific binding was determined in the presence of […] coronatine. Competition binding experiments were conducted with serial dilutions of JA-Ile in the presence of 100 nM ^3H coronatine with nonspecific binding determined in the presence of […] coronatine. Total binding was determined in the presence of vehicle only. Two-point binding experiments were performed in the presence of 100 nM or 300 nM ^3H-coronatine with nonspecific binding determined in the presence of 300 mM coronatine. […]

## CC[C@H]1C=C(C(=O)N[C@@]2(C(=O)O)C[C@@H]2CC)[C@H]2CCC(=O)[C@H]2C1 [coronatine]
  Binding affinity for JAZ6 alone: minimal binding affinity
Listed as 3H-coronatine
  Binding affinity for JAZ6 alone: no appreciable binding affinity
